Data: publication PMC5007513, “Discovery of new diketopiperazines inhibiting Burkholderia cenocepacia quorum sensing in vitro and in vivo” (Scientific Reports, 2016)
Where two headings read alike, the source gives them in different places.

Target: T1, B. cenocepacia CepI (Burkholderia cenocepacia, UniProt B4EMD2)
T1 sequence (B4EMD2 1-202): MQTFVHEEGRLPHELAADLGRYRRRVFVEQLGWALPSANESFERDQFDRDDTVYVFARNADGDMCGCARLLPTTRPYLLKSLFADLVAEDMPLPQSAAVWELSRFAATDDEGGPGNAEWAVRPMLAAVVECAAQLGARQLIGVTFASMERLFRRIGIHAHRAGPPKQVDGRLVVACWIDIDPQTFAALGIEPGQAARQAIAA
Assay: CepI enzymatic assay (holo-ACP formation with DCPIP)
Format: biochemical, Burkholderia cenocepacia J2315
Procedure: Determination of the CepI enzyme activity was performed spectrophotometrically by measuring holo-ACP formation with dichlorophenylindophenol (DCPIP; ε = 19100 M^−1 cm^−1) at 37 °C according to Christensen et al.[19]. Reaction mixtures typically contained 50 mM 4-(2-hydroxyethyl)-1-piperazineethanesulfonic acid pH 7.5 (HEPES), 0.005% Nonidet P-40, 0.13 mM DCPIP, 70 μM C8-ACP, 40 μM S-adenosyl methionine (SAM), 4 μM CepI and the reaction was started by addition of SAM after pre-incubation for 10 min.
CepI inhibition was initially screened for all compounds at 100 μM (dissolved in DMSO). […] To determine IC50, the enzyme activities were measured in presence of different concentrations of compounds and values determined with equation (1): […]
where A[I] is the enzyme activity at inhibitor concentration [I] and A[0] is the enzyme activity without inhibitor.
Ki determination was determined using the equation (2) for noncompetitive inhibition[49]: […]

[1] = Supplementary Table S1, initial screen at 100 μM
[2] = recombinant CepI, read-out: CepI IC50

In the case of O=C1CNC(=O)C(c2cc(OCc3ccccc3)ccc2OCc2ccccc2)N1 (stereo not drawn) [6a], the IC50 is reported as 30 ± 6 µM.

O=C1N[C@H](Cc2ccccc2)C(=O)NC1c1cc(OCc2ccccc2)ccc1OCc1ccccc1 (stereo partly drawn) [6b] was tested, and the “CepI IC50” value [1] was “not inhibitory”.

In the case of CC(C)[C@H]1NC(=O)C(c2cc(OCc3ccccc3)ccc2OCc2ccccc2)NC1=O (stereo partly drawn) [6c], the “CepI IC50” value [1] is reported as “not inhibitory”.

With O=C1CNC(=O)C(c2cc(O)ccc2O)N1 (stereo not drawn) [7a] the “CepI IC50” value [1] was “not inhibitory”.

O=C1N[C@H](Cc2ccccc2)C(=O)NC1c1cc(O)ccc1O (stereo partly drawn) [7b] was tested, and the “CepI IC50” value [1] was “not inhibitory”.

For CC(C)[C@H]1NC(=O)C(c2cc(O)ccc2O)NC1=O (stereo partly drawn) [7c], the “CepI IC50” value [1] was “not inhibitory”.

With O=C1C=CC(=O)C(C2NC(=O)CNC2=O)=C1 (stereo not drawn) [8a] the IC50 (Supplementary Table S1, initial screen at 100 μM, read-out: CepI IC50) was 10 ± 1 µM.

O=C1C=CC(=O)C(C2NC(=O)C(Cc3ccccc3)NC2=O)=C1 (stereo not drawn) [8b] was tested, and the IC50 was 5 ± 0.8 µM, the Ki was 17 ± 0.6 µM and the mechanism of inhibition (towards both C8-ACP and SAM substrates) was “non-competitive inhibitor”.

CC(C)C1NC(=O)C(C2=CC(=O)C=CC2=O)NC1=O (stereo not drawn) [8c] was tested, and the IC50 [2] was 5 to 30 µM.

With CN1CCN(C(c2ccccn2)c2c(-c3ccccc3)n(O)c3ccccc23)CC1 (stereo not drawn) [compound 1 from Christensen et al., reference compound] the IC50 [2] was 7.2 ± 0.2 µM.
